According to PubChem BioAssay AID608 (Sanford-Burnham Center for Chemical Genomics, 2007):
Values joined by “and” are separate entries in the source; they are usually repeats but may differ in a detail not shown here. Equal values may be shown once. Active and inactive are the calls of the source. The rule behind the calls is not given here.

These molecules were tested against Peptidyl-prolyl cis-trans isomerase FKBP1A (Homo sapiens) (UniProt P62942) (assay: small-molecule binding to FKBP12 – biophysical, NMR detection (AID 608)). Conditions: purified FKBP12.
Peptidyl-prolyl cis-trans isomerase FKBP1A (Homo sapiens), sequence (P62942 whole entry, looked up): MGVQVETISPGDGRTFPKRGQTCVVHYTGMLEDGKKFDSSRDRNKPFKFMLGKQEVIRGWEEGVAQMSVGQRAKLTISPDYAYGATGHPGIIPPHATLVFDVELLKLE
For `c1cc(C(N2CCOCC2)N2CCOCC2)ccn1`, the Kd was > 4 mM (inactive).
`CNC(=O)n1ccc(C(=O)N2CCCCC2)n1` was tested, and the Kd was > 4 mM (inactive).
For `COC(=O)c1ccc(NC(=O)CC2NCCNC2=O)cc1` (centres undefined), the Kd was > 4 mM (inactive).
In the case of `Oc1ccccc1N=Cc1cccnc1`, the Kd is reported as > 4 mM (inactive).
For `CC1(C)SCC(C(=O)O)N1C=O` (centres undefined), the Kd was > 4 mM (inactive).
With `CC(C)=CC(=O)Nc1ccc(S(N)(=O)=O)cc1` the Kd was > 4 mM (inactive).
With `Cn1cccc1C(=O)NS(=O)(=O)c1ccccc1Cl` the Kd was > 4 mM (inactive).
For `NC(=O)CSc1ccccn1`, the Kd was > 4 mM (inactive).
`CC(=O)Nc1c(C)n(C)n(-c2ccccc2)c1=O` was tested, and the Kd was > 4 mM (inactive).
For `CCC(C)OC1CCS(=O)(=O)C1` (centres undefined), the Kd was > 4 mM (inactive).
In the case of `Cc1nc(NCc2ccco2)nc2c1C(=O)CC(C)C2` (centres undefined), the Kd is reported as > 4 mM (inactive).
In the case of `Cc1cc(NC(=O)c2cnn3cccnc23)no1`, the Kd is reported as > 4 mM (inactive).
For `O=C1C2CCCCC2C(=O)N1c1nccs1` (centres undefined), the Kd was > 4 mM (inactive).
For `Cc1cc(O)c(C)c(O)c1C(=O)O`, the Kd was > 4 mM (inactive).
For `Cc1nc(-c2ccc(NS(C)(=O)=O)cc2)cs1`, the Kd was > 4 mM (inactive).
In the case of `O=C(Oc1ccc(-c2nnco2)cc1)N1CCCCC1`, the Kd is reported as > 4 mM (inactive).
`O=C1C2CC=C(Cl)CC2C(=O)N1c1ccccc1O` (centres undefined) was tested, and the Kd was > 4 mM (inactive).
`O=C(Cc1cccs1)Nc1ccccn1` was tested, and the Kd was > 4 mM (inactive).
In the case of `CC(=O)Oc1ccc(N2C(=O)C3C4C=CC(O4)C3C2=O)cc1` (centres undefined), the Kd is reported as > 4 mM (inactive).
`c1ccc2[nH]c(-c3cscn3)nc2c1` was tested, and the Kd was 0.111 mM and 0.056 mM.
With `O=C1c2ccccc2C(=O)c2c1ccc(O)c2O` the Kd was > 4 mM (inactive).
With `Cc1ccnc(NS(=O)(=O)c2ccccc2)n1` the Kd was > 4 mM (inactive).
In the case of `COc1cc(OC)cc(-c2nc(N)n[nH]2)c1`, the Kd is reported as > 4 mM (inactive).
`CCC(CCC(C)[C@H]1CCC2C3CC=C4C[C@@H](O)CC[C@]4(C)C3CC[C@@]21C)C(C)C` (some centres undefined) was tested, and the Kd was > 4 mM (inactive).
For `N#Cc1c(N)c(C(=O)c2ccccc2)n2c1CCC2`, the Kd was > 4 mM (inactive).
With `Cc1cc(OCC(=O)N2CCOCC2)cc(C)c1Cl` the Kd was “inactive”.
`OCc1cccs1` was tested, and the Kd was > 4 mM (inactive).
For `C/C=C(/C)C(=O)O[C@H]1CC[C@@]2(C)[C@@H]3CC[C@H]4[C@]5(O)C[C@H](O)[C@@]6(O)[C@@H](CN7C[C@@H](C)CC[C@H]7[C@@]6(C)O)[C@]5(O)C[C@@]42OC13O`, the Kd was > 4 mM (inactive).
For `C=CCN1CC[C@]23c4c5ccc(O)c4OC2C(=O)CC[C@@]3(O)[C@H]1C5` (some centres undefined), the Kd was > 4 mM (inactive).
For `NS(=O)(=O)c1ccc(NC(=O)C2CC2)cc1`, the Kd was > 4 mM (inactive).
`Cc1cc(C)c(C)c(OCC(=O)N2CCOCC2)c1` was tested, and the Kd was “inactive”.
With `Cc1nc(-c2ccccc2)sc1CN` the Kd was > 4 mM (inactive).
For `CC(=O)NC(=S)Nc1ccc(S(N)(=O)=O)cc1`, the Kd was > 4 mM (inactive).
For `Cc1cc(=O)n2ncn(Cc3ccccc3)c2n1`, the Kd was > 4 mM (inactive).
For `COc1ccc(-c2nc(C)sc2CC(=O)O)cc1`, the Kd was > 4 mM (inactive).
With `Cc1cc(C)nc(N(C#N)Cc2ccccc2)n1` the Kd was > 4 mM (inactive).
For `CC(=O)O[C@@H]1C[C@@]2(C)[C@H](c3ccoc3)C[C@H]3O[C@]32[C@]2(C)C(=O)C(O)=C3C(C)(C)C(=O)C=C[C@]3(C)C12` (some centres undefined), the Kd was > 4 mM (inactive).
With `Nc1ccc2nsnc2c1` the Kd was > 4 mM (inactive).
`CC1=CCCC2C1(C)CCC(C)C2(C)CC/C(C)=C/C[n+]1cn(C)c2c(N)ncnc21` (centres undefined) was tested, and the Kd was > 4 mM (inactive).
`CN1C2CC[C@@H]1CC(OC(=O)[C@H](CO)c1ccccc1)C2` (some centres undefined) was tested, and the Kd was > 4 mM (inactive).
In the case of `O=c1cc(-c2ccccc2)oc2cc(O)c(O)c(O)c12`, the Kd is reported as > 4 mM (inactive).
With `C(=N\n1cnnc1)/c1cccs1` the Kd was > 4 mM (inactive).
`Cc1cc(N)ccc1NC(=O)c1ccco1` was tested, and the Kd was > 4 mM (inactive).
With `Nc1ncnc2c1ncn2CCN1CCCCC1` the Kd was > 4 mM (inactive).
For `COc1c2c(cc3cc[n+](C)cc13)OCO2`, the Kd was > 4 mM (inactive).
`CCOc1ccc(C(=O)c2ccncc2)cc1` was tested, and the Kd was > 4 mM (inactive).
`CC1(C)NCCN2C(=O)CSC21` (centres undefined) was tested, and the Kd was > 4 mM (inactive).
In the case of `NC(=O)c1ccccc1NC(=O)C1CC1`, the Kd is reported as > 4 mM (inactive).
`COCc1cc(C)nc2sc(C(=O)OC)c(N)c12` was tested, and the Kd was > 4 mM (inactive).
With `O=C1CCC(=O)N1c1cccnc1` the Kd was > 4 mM (inactive).
In the case of `Nc1ncnc2nc[nH]c12`, the Kd is reported as > 4 mM (inactive).
Work on `O=C1C2=C(SCCS2)C(=O)N1CCCO` yielded a Kd of 0.251 mM.
In the case of `CC(=O)O[C@H]1C[C@@]2(C)[C@@H](C[C@@H](O)C3[C@]2(C)CC[C@H]2[C@H](C)[C@H](O)CC[C@]32C)/C1=C(/CCC=C(C)C)C(=O)O` (some centres undefined), the Kd is reported as > 4 mM (inactive).
In the case of `O=C(CS(=O)(=O)c1ccccc1)N1CCCCCC1`, the Kd is reported as > 4 mM (inactive).
For `O=C(Nc1ccccc1)N1CCOCC1`, the Kd was > 4 mM (inactive).
In the case of `O=C(O)CNC(=O)c1ccccc1Cl`, the Kd is reported as > 4 mM (inactive).
In the case of `COc1nc(C)ccc1-c1noc(-c2ccncc2)n1`, the Kd is reported as > 4 mM (inactive).
With `O=C(O)c1ccc(-c2cccs2)cc1` the Kd was > 4 mM (inactive).
In the case of `O=C(CSc1ccccc1)N1CCC2(CC1)OCCO2`, the Kd is reported as > 4 mM (inactive).
For `C=CC(C1=CC(=O)C=CC1=O)c1ccccc1` (centres undefined), the Kd was > 4 mM (inactive).
For `O=C(COc1ccccc1)N1CCOCC1`, the Kd was “inactive”.
`O=c1oc2c(O)c(O)cc3c(=O)oc4c(O)c(O)cc1c4c23` was tested, and the Kd was > 4 mM (inactive).
In the case of `S=c1nc2c(n[nH]1)[nH]c1ccccc12`, the Kd is reported as > 4 mM (inactive).
With `O=C(OCc1c(Cl)cccc1Cl)c1cnccn1` the Kd was > 4 mM (inactive).
With `COc1ccc2c(Cl)c(C(=O)N3CC(C)OC(C)C3)sc2c1` (centres undefined) the Kd was > 13.6 mM (inactive).
`S=c1ccc(N2CCCCC2)n[nH]1` was tested, and the Kd was > 4 mM (inactive).
With `O=C(NN1C(=O)CSC1=S)c1ccccc1` the Kd was > 4 mM (inactive).
For `CC(=O)N1N=C(N)SC1c1cccnc1` (centres undefined), the Kd was > 4 mM (inactive).
`C[C@]12C=CC(=O)C=C1CCC1C2CC[C@]2(C)C(=O)CCC12` (some centres undefined) was tested, and the Kd was > 4 mM (inactive).
With `COc1cccc(/C=C/C(=O)O)c1C(C)C` the Kd was > 4 mM (inactive).
With `CN(C)c1ccc(C2CC(=O)CC(=O)C2)cc1` the Kd was > 4 mM (inactive).
With `CC(C)NC1CS(=O)(=O)CC1O` (centres undefined) the Kd was > 4 mM (inactive).
For `COc1ccc2c(c1)OC/C(=C/c1ccc(O)c(O)c1)C2=O`, the Kd was > 4 mM (inactive).
With `O=C1NC(=O)C(Cc2ccccc2)C(=O)N1` the Kd was > 4 mM (inactive).
`COc1c(CC=C(C)C)c2c(c3oc(=O)c(-c4ccc(O)cc4)c(O)c13)C=CC(C)(C)O2` was tested, and the Kd was > 4 mM (inactive).
For `Cn1c(SCC(N)=O)nc2ccccc2c1=O`, the Kd was > 4 mM (inactive).
`CN1CC(=O)N=C1N` was tested, and the Kd was > 4 mM (inactive).
`O=C(Oc1ccc2c(c1)CCC2)N1CCOCC1` was tested, and the Kd was > 4 mM (inactive).
In the case of `CC1CN(C(=O)c2ccncc2)CC(C)O1` (centres undefined), the Kd is reported as > 4 mM (inactive).
With `c1ccc2nc3c(nc2c1)CCc1nonc1-3` the Kd was > 4 mM (inactive).
With `CC(=O)O[C@@H]1CC2C(C)(C)C(=O)C=C[C@]2(C)C2CC[C@@]3(C)[C@H](c4ccoc4)OC(=O)[C@H]4O[C@]43[C@@]21C` (some centres undefined) the Kd was > 4 mM (inactive).
`O=C1CSC(c2ccccc2)N1` (centres undefined) was tested, and the Kd was > 4 mM (inactive).
In the case of `OC1(c2ccc(Cl)cc2)CCNCC1`, the Kd is reported as > 4 mM (inactive).
`CCn1nccc1C(=O)Nc1ccc(Cl)cc1Cl` was tested, and the Kd was > 4 mM (inactive).
For `Cc1nccc(-c2cccc(N)c2)n1`, the Kd was > 4 mM (inactive).
`COc1ccccc1Nc1nncc(=O)[nH]1` was tested, and the Kd was > 4 mM (inactive).
With `O=C(O)c1cc(=O)[nH]c2ccccc12` the Kd was > 4 mM (inactive).
`CC1CN(C(=O)CSc2ccccc2)CC(C)O1` (centres undefined) was tested, and the Kd was “inactive”.
For `O=C(O)C1CN2CCC1CC2` (centres undefined), the Kd was > 4 mM (inactive).
`Cc1ccc(CN2C3=NC(=O)CN3c3ccccc32)cc1` was tested, and the Kd was > 4 mM (inactive).
For `Cc1[nH]c2ccccc2c1CN(C)C`, the Kd was > 4 mM (inactive).
`CN=C(C)c1c(O)n(C)c(=O)n(C)c1=O` was tested, and the Kd was > 4 mM (inactive).
`COc1cc([C@@H]2c3cc4c(cc3[C@H](O)[C@H]3COC(=O)[C@H]23)OCO4)cc(OC)c1OC` was tested, and the Kd was > 4 mM (inactive).
With `C=C1C2CC[C@@]3(C)[C@H](c4ccoc4)OC(=O)C[C@]13O[C@H]1CC(=O)C(C)(C)[C@H](C(OC(C)=O)C(=O)OC)[C@@]21C` (some centres undefined) the Kd was > 4 mM (inactive).
`Nc1csc(C(=O)O)c1` was tested, and the Kd was > 4 mM (inactive).
For `NC(=O)CSc1nc2ccccc2[nH]1`, the Kd was > 4 mM (inactive).
With `CCn1nnnc1Oc1ccc(Cl)cc1` the Kd was > 4 mM (inactive).
With `CN1C(=O)C(Cc2c[nH]c3ccccc23)C(=O)N(C)C1=O` the Kd was > 4 mM (inactive).
`Cc1ccc(C(=O)Nc2c[nH]c(=O)[nH]c2=O)cc1` was tested, and the Kd was > 4 mM (inactive).
For `Nc1c(Nc2ccccc2)c2ccccc2oc1=O`, the Kd was > 4 mM (inactive).
With `Nc1cccc(OCC(=O)N2CCOCC2)c1` the Kd was > 4 mM (inactive).
`COc1nc(C#N)c(N2CCOCC2)o1` was tested, and the Kd was > 4 mM (inactive).
With `Cc1nc(SCC#N)c2c(C)c(C)sc2n1` the Kd was > 4 mM (inactive).
In the case of `CNS(=O)(=O)c1ccc2[nH]c(=O)[nH]c2c1`, the Kd is reported as > 4 mM (inactive).
With `Cc1ccc(NS(=O)(=O)N2CCCCC2)cc1Cl` the Kd was “inactive”.
`CNC(=O)c1cc(C)c(-c2ccccc2)s1` was tested, and the Kd was > 4 mM (inactive).
With `COC(=O)C1CCN(c2ccc(Cl)nn2)CC1` the Kd was > 4 mM (inactive).
For `C[C@@H]1CC[C@@]2(OC1)OC1CC3C4CC=C5C[C@@H](O)CC[C@]5(C)C4CC[C@]3(C)C1[C@@H]2C` (some centres undefined), the Kd was > 4 mM (inactive).
With `O=C(c1cc(-c2ccccc2)on1)N1CCCC1` the Kd was > 4 mM (inactive).
With `C/C=C(/C)C(=O)O[C@@H]1[C@H](OC(C)=O)[C@@]2(CO)C(CC1(C)C)C1=CCC3[C@@]4(C)CC[C@H](O[C@@H]5O[C@H](C(=O)O)[C@@H](O[C@@H]6O[C@H](CO)[C@@H](O)[C@H](O)[C@H]6O)[C@H](O)[C@H]5O[C@@H]5O[C@H](CO)[C@@H](O)[C@H](O)[C@H]5O)[C@](C)(CO)C4CC[C@@]3(C)[C@]1(C)C[C@H]2O` (some centres undefined) the Kd was > 4 mM (inactive).
For `CN(C)Cc1nc2c([nH]1)c(=O)[nH]c(=O)n2C`, the Kd was > 4 mM (inactive).
`CCOc1cc(S(=O)(=O)n2nc(C)cc2C)ccc1F` was tested, and the Kd was > 4 mM (inactive).
`Cc1nc(N2CCOCC2)[nH]c(=O)c1C` was tested, and the Kd was > 4 mM (inactive).
In the case of `Cc1ccc(C(=O)N2CC(=O)NC(=O)C2)cc1`, the Kd is reported as > 4 mM (inactive).
